# Patent US20220023273A1, “METHODS FOR TREATING SYMPTOMS AND DISORDERS ASSOCIATED WITH LYSOSOMAL STORAGE DISEASES” (GENZYME CORPORATION, priority 2019, published 2022)
# Key:
# Type in all cases: in vivo, human
# [1] = Phase 1 Study 1 Part 2: PK with and without a high-fat meal; conditions: healthy men, single oral 5 mg, fed vs fasting
# Excerpt: Study 1 was a 2-part single-center trial in healthy adult male volunteers.
# After a 7-day washout period, participants were crossed over to the other condition.
# [2] = GD3 clinical study: safety and tolerability; conditions: GD3, 15 mg/day oral + imiglucerase
# Protocol: (§1) During the study patients were evaluated for safety and tolerability, CSF and plasma biomarkers (glucosylceramide, GL-1; glucosylsphingosine, lyso-GL1), pharmacokinetics, markers for systemic disease (spleen and liver volume measured by magnetic resonance imaging (MRI), platelet count, hemoglobin levels), indicia of interstitial lung disease (high resolution pulmonary computed tomography (CT)), and horizontal saccadic eye movement.
# [3] = system: GL-3 inclusions in skin cells; experiment: Fabry clinical study: skin GL-3 inclusion score by light microscopy; conditions: Fabry males
# Protocol: A three-year open-label investigation of Compound 2 in young classic Fabry disease patients was conducted in order to evaluate the long-term safety, pharmacodynamics and exploratory efficacy of Compound 2 in adult male Fabry patients. Eleven subjects enrolled in the study, and seven subjects completed all aspects of the study. All subjects were males diagnosed with classic Fabry disease confirmed by genotype and residual alpha-galactosidase activity below detection levels (9 of the 11 had nonsense mutation in the GLA gene). All subjects had lyso-GL3 levels in plasma of at least 65 ng/mL and had no prior Fabry disease-specific treatment. The median age of subject was 24 years (range 19-37).
# Each sample was scored independently by 3 pathologists for the presence of GL-3 inclusions on a four-point scale, and rated as 0 (no/trace), 1 (mild), 2 (moderate), or 3 (severe) according to Eng et al., N. Engl. J. Med. 345:9-16 (2001). A single score per patient per time point was derived by taking the score rated by the majority of the three pathologists. If a majority score could not be derived, then the median score was used (resulting in some fractional scores). Plasma samples were also analyzed for GL-3, lyso-GL-3, GL-1 and GM3 at baseline and weeks 12, 26, 52 and 156. Pain scores and abdominal symptoms were analyzed at baseline and weeks 12, 26, 52, 104 and 156 using the SF-36 scoring protocol.
# [4] = Phase 1 Study 2: ascending repeated-dose pharmacokinetics
# [5] = system: adult patients with Gaucher disease Type 3; experiment: GD3 clinical study: markers for systemic disease (spleen volume, platelet count, hemoglobin); conditions: GD3, 15 mg/day oral + imiglucerase
# Protocol: as §1
# Individual patient data for platelet counts are shown in the table below (shown as 10^9 platelets/L): […]
# [6] = healthy adults, 5 mg once daily, Day 14
# [7] = repeated once-daily doses from 5-20 mg
smiles,measurement,setting,value
"CC(C)(NC(=O)O[C@@H]1CN2CCC1CC2)c1csc(-c2ccc(F)cc2)n1 [Compound 2, (S)-quinuclidin-3-yl (2-(2-(4-fluorophenyl)thiazol-4-yl)propan-2-yl)carbamate]",effect of a high-fat meal on Compound 2 exposure,[1],no effect
same,treatment-emergent adverse events,"[2]; 26 weeks, all 5 patients",no serious or lasting treatment-emergent adverse events
same,total treatment-emergent adverse events reported,"[2]; 52 weeks, six patients",30
same,severity of treatment-emergent adverse events,"[2]; 52 weeks, six patients, none considered related to treatment",mild or moderate in severity
same,levels of GL-3 inclusions in the skin,[3]; 15 mg/day,consistently reduces the levels of GL-3 inclusions in the skin
same,patients with a 1-point reduction in skin GL-3 score,"[3]; by week 156, 15 mg/day oral",five
same,patients with complete clearance of GL-3 inclusions,"[3]; by week 156, 15 mg/day oral",two
same,patients with no change in skin GL-3 score,"[3]; by week 156, 15 mg/day oral",one
same,"AUC0-24, Geometric mean (CV)",[4]; [6],632 (19) ng · h/mL
same,"AUC0-24, Mean (SD)",[4]; [6],642 (121) ng · h/mL
same,"tmax, median (range)","[4]; healthy adults, 10 mg once daily, Day 1",3.00 (2.00-5.00) h
same,"tmax, median (range)","[4]; healthy adults, 20 mg once daily, Day 14",3.00 (2.00-8.00) h
same,Ctrough values,"[4]; healthy adults, 5, 10, or 20 mg once daily for 14 days",reached a plateau after Day 5
same,effect of age and gender on accumulation,[4]; [7],neither age nor gender affected accumulation
same,time to steady state,[4]; [7],≤ 5 days
same,systemic deterioration,"[5]; 26 weeks, all patients",absence of systemic deterioration
same,changes in hemoglobin levels,[5]; 26 weeks,no clinically meaningful changes
same,patients with reductions in splenic volume of 10% or more,[5]; 26 weeks,Two
same,changes in hemoglobin levels,[5]; Week 52,no clinically meaningful changes
same,patients with spleen volume reductions,[5]; Week 52,two
